The values below come from ChEMBL document CHEMBL3046211, “Synthesis, antimicrobial, analgesic activity, and molecular docking studies of novel 1-(5,7-dichloro-1,3-benzoxazol-2-yl)-3-phenyl-1H-pyrazole-4-carbaldehyde derivatives” (2013).

Test [1] deals with Aspergillus niger. The test is described as follows: Antifungal activity against Aspergillus niger at 40 ug/ml after 72 hrs by agar well diffusion method. Format: functional. To be noted: read-out: IZ. (In agar diffusion tests the substance spreads into inoculated agar from a disc or well.)
In test [2] the test system is Staphylococcus aureus. Description: Antibacterial activity against Staphylococcus aureus pateint isolate. Format: functional.
Test [3] concerns Candida albicans. The test is described as follows: Antifungal activity against Candida albicans. Format: functional.
Test [4] deals with Staphylococcus aureus. Description: Antibacterial activity against Staphylococcus aureus pateint isolate at 40 ug/ml after 24 hrs by agar well diffusion method. Format: functional. To be noted: read-out: IZ.
The subject of another test is Mus musculus. Description: Analgesic activity in Swiss albino mouse assessed as protection against acetic acid-induced writhing at 100 mg/kg, po administered 1 hr prior to acetic acid-challenge measured after 5 mins for 20 mins relative to control. Format: functional. In general terms: An intraperitoneal irritant provokes the stretching counted in writhing tests.
For test [5], the system named is Salmonella typhi. Description: Antibacterial activity against Salmonella typhi pateint isolate. It is filed as functional, Salmonella enterica subsp. enterica serovar Typhi. Conditions: Salmonella enterica.
The subject of test [6] is Escherichia coli. The test is described as follows: Antibacterial activity against Escherichia coli pateint isolate at 40 ug/ml after 24 hrs by agar well diffusion method. It is filed as functional.
Test [7] concerns Aspergillus niger. Description: Antifungal activity against Aspergillus niger. Format: functional.
For test [8], the system named is Escherichia coli. Description: Antibacterial activity against Escherichia coli pateint isolate. Format: functional.
Test [9] has as its system Bacillus subtilis. Description: Antibacterial activity against Bacillus subtilis pateint isolate. Format: functional.
Test [10] deals with Candida albicans. The test is described as follows: Antifungal activity against Candida albicans at 40 ug/ml after 72 hrs by agar well diffusion method. It is filed as functional. Conditions: read-out: IZ.
Test [11] has as its system Salmonella typhi. Description: Antibacterial activity against Salmonella typhi pateint isolate at 40 ug/ml after 24 hrs by agar well diffusion method. Format: functional, Salmonella enterica subsp. enterica serovar Typhi. To be noted: Salmonella enterica, read-out: IZ.
Test [12] concerns Bacillus subtilis. The test is described as follows: Antibacterial activity against Bacillus subtilis pateint isolate at 40 ug/ml after 24 hrs by agar well diffusion method. It is filed as functional. To be noted: read-out: IZ.
Test [13] deals with Aspergillus niger. The test is described as follows: Antifungal activity against Aspergillus niger at 40 ug/100 ul after 72 hrs by agar well diffusion method. It is filed as functional.
Test [14] deals with Candida albicans. Description: Antifungal activity against Candida albicans at 40 ug/100 ul after 72 hrs by agar well diffusion method. Format: functional.
Test [15] deals with Salmonella typhi. The test is described as follows: Antibacterial activity against Salmonella typhi pateint isolate at 40 ug/100 ul after 24 hrs by agar well diffusion method. Format: functional, Salmonella enterica subsp. enterica serovar Typhi.

In brackets after ≈: the same amount, converted by molar mass.

The MIC is the smallest concentration in the dilution series that meets the test's criterion for growth inhibition. Low values mean greater potency, high ones weaker potency. For `Cc1ccc(-c2nn(-c3nc4cc(Cl)cc(Cl)c4o3)cc2C=O)cc1`, the zone of inhibition at 40 µg/mL was 19 mm in the test with Aspergillus niger [1]; 21 mm with Staphylococcus aureus [4]; 19 mm in the test with Candida albicans [10]; 20 mm in the test on Salmonella typhi [11]; 20 mm in the test with Bacillus subtilis [12]. The MIC against Staphylococcus aureus [2] was found to be 30 µg/mL (≈ 80.6 µM); in the test on Candida albicans [3], 30 µg/mL (≈ 80.6 µM); in the test with Salmonella typhi [5], 30 µg/mL (≈ 80.6 µM); in the test on Aspergillus niger [7], 30 µg/mL (≈ 80.6 µM); in the test on Escherichia coli [8] it was 40 µg/mL (≈ 107 µM); with Bacillus subtilis [9] it was 30 µg/mL (≈ 80.6 µM). Besides, in the test with Mus musculus, the Activity was 51.4%. Further, the “inhibition zone (IZ)” value in the test with Escherichia coli [6] turned out to be 21 mm.

As to `OC(Cn1cncn1)(Cn1cncn1)c1ccc(F)cc1F` [FLUCONAZOLE], the “inhibition zone (IZ)” value is reported as 22 mm with Aspergillus niger [13] and 23 mm in the test on Candida albicans [14].

Regarding `O=Cc1cn(-c2nc3cc(Cl)cc(Cl)c3o2)nc1-c1ccc(Br)cc1`, the zone of inhibition at 40 µg/mL with Aspergillus niger [1] came out at 22 mm; with Staphylococcus aureus [4] it was 23 mm; with Candida albicans [10] it was 23 mm; with Salmonella typhi [11], 21 mm; in the test with Bacillus subtilis [12], 22 mm. In addition, the MIC against Staphylococcus aureus [2] came to 20 µg/mL (≈ 45.8 µM); against Candida albicans [3], 30 µg/mL (≈ 68.6 µM); in the test on Salmonella typhi [5], 30 µg/mL (≈ 68.6 µM); against Aspergillus niger [7], 20 µg/mL (≈ 45.8 µM); with Escherichia coli [8], 20 µg/mL (≈ 45.8 µM); against Bacillus subtilis [9] it was 20 µg/mL (≈ 45.8 µM). Also, the Activity in the test on Mus musculus is 54.63%. In addition, the “inhibition zone (IZ)” value in the test on Escherichia coli [6] was determined as 22 mm.

Take `O=Cc1cn(-c2nc3cc(Cl)cc(Cl)c3o2)nc1-c1ccc(O)cc1`: the zone of inhibition at 40 µg/mL in the test with Aspergillus niger [1] came out at 22 mm; with Staphylococcus aureus [4] it was 23 mm; with Candida albicans [10], 22 mm; in the test on Salmonella typhi [11], 21 mm; with Bacillus subtilis [12] it was 23 mm. Further, the MIC with Staphylococcus aureus [2] came to 20 µg/mL (≈ 53.4 µM); in the test with Candida albicans [3], 20 µg/mL (≈ 53.4 µM); against Salmonella typhi [5] it was 30 µg/mL (≈ 80.2 µM); against Aspergillus niger [7], 30 µg/mL (≈ 80.2 µM); with Escherichia coli [8], 30 µg/mL (≈ 80.2 µM); in the test on Bacillus subtilis [9] it was 20 µg/mL (≈ 53.4 µM). The Activity with Mus musculus is on record as 55.78%. Besides, the “inhibition zone (IZ)” value with Escherichia coli [6] is reported as 22 mm.

Regarding `COc1ccc(-c2nn(-c3nc4cc(Cl)cc(Cl)c4o3)cc2C=O)cc1`, the zone of inhibition at 40 µg/mL in the test on Aspergillus niger [1] worked out at 20 mm; in the test with Staphylococcus aureus [4] it was 19 mm; in the test on Candida albicans [10], 20 mm; in the test with Salmonella typhi [11], 19 mm; in the test on Bacillus subtilis [12], 20 mm. Also, the minimum inhibitory concentration (MIC) in the test on Staphylococcus aureus [2] was 30 µg/mL (≈ 77.3 µM); with Candida albicans [3] it was 40 µg/mL (≈ 103 µM); against Salmonella typhi [5], 40 µg/mL (≈ 103 µM); with Aspergillus niger [7] it was 30 µg/mL (≈ 77.3 µM); with Escherichia coli [8], 40 µg/mL (≈ 103 µM); in the test on Bacillus subtilis [9], 40 µg/mL (≈ 103 µM). Further, the Activity in the test with Mus musculus is on record as 50.27%. Further, the “inhibition zone (IZ)” value in the test with Escherichia coli [6] was 22 mm.

In the case of `O=Cc1cn(-c2nc3cc(Cl)cc(Cl)c3o2)nc1-c1ccc(Cl)c(Cl)c1`, the zone of inhibition at 40 µg/mL with Aspergillus niger [1] is 22 mm; with Staphylococcus aureus [4] it was 22 mm; with Candida albicans [10], 22 mm; in the test on Salmonella typhi [11] it was 20 mm; in the test with Bacillus subtilis [12], 22 mm. In addition, the MIC in the test on Staphylococcus aureus [2] came out at 30 µg/mL (≈ 70.2 µM); with Candida albicans [3] it was 40 µg/mL (≈ 93.7 µM); against Salmonella typhi [5], 30 µg/mL (≈ 70.2 µM); in the test with Aspergillus niger [7], 40 µg/mL (≈ 93.7 µM); in the test with Escherichia coli [8], 30 µg/mL (≈ 70.2 µM); against Bacillus subtilis [9], 30 µg/mL (≈ 70.2 µM). Also, in the test on Mus musculus, the Activity is given as 50%. The “inhibition zone (IZ)” value with Escherichia coli [6] was found to be 22 mm.

Consider `CC(=O)Oc1ccccc1C(=O)O` [ASPIRIN], for which, in the test on Mus musculus, the Activity was found to be 58.74%.

Regarding `O=C(O)c1cn(C2CC2)c2cc(N3CCNCC3)c(F)cc2c1=O` [CIPROFLOXACIN], the “inhibition zone (IZ)” value in the test on Salmonella typhi [15] was 21 mm.
